The record followed here is US8507479B2, “Aminodihydrothiazine derivatives substituted with a cyclic group” (Shionogi & Co., Ltd., priority 2007, dated 2013).

For the test, the target named is Recombinant human BACE-1 (Homo sapiens (Human), UniProt P56817). Nature of the test: Assay of β-secretase-inhibiting activity.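 Further: enzyme cleavage of a biotinylated, Europium cryptate-labelled peptide substrate, incubated 3 h at 30 °C, then probed with Streptavidin-XL665 in KF-containing phosphate buffer.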 It is filed as biochemical.
Recombinant human BACE-1, sequence (P56817 46-501): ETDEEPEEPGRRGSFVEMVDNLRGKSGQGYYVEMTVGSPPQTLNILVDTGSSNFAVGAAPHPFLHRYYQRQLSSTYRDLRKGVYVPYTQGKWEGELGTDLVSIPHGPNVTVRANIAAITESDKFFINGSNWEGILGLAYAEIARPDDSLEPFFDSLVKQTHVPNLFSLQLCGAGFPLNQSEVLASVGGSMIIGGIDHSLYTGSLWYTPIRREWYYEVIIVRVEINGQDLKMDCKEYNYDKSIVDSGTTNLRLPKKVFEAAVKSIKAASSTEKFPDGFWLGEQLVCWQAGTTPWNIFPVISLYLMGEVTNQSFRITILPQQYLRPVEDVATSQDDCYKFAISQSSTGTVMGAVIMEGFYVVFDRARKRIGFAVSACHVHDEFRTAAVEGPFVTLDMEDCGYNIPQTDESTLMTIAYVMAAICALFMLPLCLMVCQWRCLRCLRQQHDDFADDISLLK
Where [1] appears, read: substrate peptide 18 nM, BACE-1 7.4 nM, pH 5.0, 30° C., 3 hours, read-out: IC50 values.

pIC50: −log10 of the molar value. Read-outs that look alike come from different tables or passages of the source.

In general, pIC50 refers to the IC50 on a negative log10 scale, so that one unit is a factor of ten. As for `C[C@@]1(c2cncc(NC(=O)c3cnc(Cl)cn3)c2)CCSC(N)=N1` [Compound 597], the pIC50 under setting [1] is at least 6.00.

Take `C[C@@]1(c2cc(NC(=O)c3cnc(N=NN)cn3)ccc2F)CCSC(N)=N1` [Compound 79]: the pIC50 under setting [1] is at least 6.00.

In the case of `C[C@@]1(c2cccc(NC(=O)c3ccc(Cl)cn3)n2)CCSC(N)=N1` [Compound 599], the pIC50 under setting [1] was at least 6.00.

On to `Cc1cnc(C(=O)Nc2ccc(F)c([C@@]3(C)N=C(N)SCC3(F)F)c2)cn1` [Compound 662], for which the negative logarithm of the IC50 (pIC50) under setting [1] is at least 6.00.

In the case of `C[C@@]1(c2cc(NC(=O)c3cnc(NCC#N)cn3)ccc2F)CCSC(N)=N1` [Compound 701], the pIC50 (Recombinant human BACE-1, same assay, table, read-out: IC50) is 6.70.

Consider `COc1cnc(C(=O)Nc2ccc(F)c([C@@]3(C)N=C(N)SCC3=O)c2)cn1` [Compound 689], for which the pIC50 under setting [1] is at least 6.00.

Consider `Cc1nc(C(=O)Nc2ccc(F)c([C@]3(C)CCSC(N)=N3)c2)cs1` [Compound 505], for which, under setting [1], the pIC50 is at least 6.00.

For the compound `Cc1nc(C(=O)Nc2ccc(F)c([C@@]3(C)N=C(N)SCC3(F)F)c2)co1` [Compound 664], the pIC50 under setting [1] was at least 6.00.

With `C[C@@]1(c2cc(NC(=O)c3ccc(OCC(N)=O)cn3)ccc2F)CCSC(N)=N1` [Compound 559], the pIC50 under setting [1] is at least 6.00.

In the case of `COCCOc1cnc(C(=O)Nc2cc(F)c(F)c([C@]3(C)CCSC(N)=N3)c2)cn1` [Compound 148], under setting [1], the pIC50 was at least 6.00.

Turning to `C[C@@]1(c2cc(NC(=O)c3coc(C(F)(F)F)n3)ccc2F)CCSC(N)=N1` [Compound 669], under setting [1], the pIC50 was at least 6.00.

On to `CC1(c2cc(NC(=O)c3cnc(Cl)cn3)ccc2Br)CCSC(N)=N1` (stereo not shown) [Compound 517], for which the pIC50 under setting [1] was at least 6.00.

In the case of `CC1(C)C[C@@](C)(c2cccc(NC(=O)c3ccc(C#N)cn3)c2)N=C(N)S1` [Compound 696], the negative logarithm of the IC50 (pIC50) under setting [1] was at least 6.00.

In the case of `Cc1nc(C(=O)Nc2cccc([C@]3(C)CCSC(N)=N3)c2)cs1` [Compound 10], the pIC50 under setting [1] is at least 6.00.

As for `Cc1cnc(C(=O)Nc2cccc([C@]3(C)CCSC(N)=N3)c2)cn1` [Compound 563], the negative logarithm of the IC50 (pIC50) under setting [1] is at least 6.00.

With `CC1(C)C[C@@](C)(c2cc(NC(=O)c3coc(Cl)n3)ccc2F)N=C(N)S1` [Compound 645], the pIC50 under setting [1] was at least 6.00.

For `Cc1nc(C(=O)Nc2cncc([C@]3(C)CCSC(N)=N3)c2)c(C)o1` [Compound 461], the pIC50 under setting [1] was at least 6.00.

For the compound `Cc1nc(Br)sc1C(=O)Nc1cccc([C@]2(C)CCSC(N)=N2)c1` [Compound 6], under setting [1], the pIC50 was at least 6.00.

In the case of `C[C@@]1(c2cc(NC(=O)c3ccc(OCC#CCN)cn3)ccc2F)CCSC(N)=N1` [Compound 566], the pIC50 under setting [1] is at least 6.00.

On to `Cc1cnc(C(=O)Nc2cc([C@]3(C)CCSC(N)=N3)c3oc(C)cc3c2)cn1` [Compound 468], for which, under setting [1], the pIC50 is at least 6.00.

For the compound `C[C@]1(c2cc(NC(=O)c3ncccc3F)ccc2F)N=C(N)SCC1(F)F` [Compound 660], the pIC50 under setting [1] was at least 6.00.

Take `CC1(C)C[C@@](C)(c2cc(NC(=O)c3ccc(O)cn3)ccc2F)N=C(N)S1` [Compound 650]: under setting [1], the pIC50 is at least 6.00.

As for `C[C@@]1(c2cc(NC(=O)c3ncc(O)cc3F)ccc2F)CCSC(N)=N1` [Compound 491], the pIC50 under setting [1] is at least 6.00.

For the compound `Cc1nc(C)c(C(=O)Nc2cccc([C@]3(C)CCSC(N)=N3)c2)s1` [Compound 8], the pIC50 under setting [1] is at least 6.00.

`C[C@@]1(c2cc(NC(=O)c3cn4ccccc4n3)ccc2F)CCSC(N)=N1` [Compound 502]: the pIC50 under setting [1] is at least 6.00.

On to `Cc1nc(C(=O)Nc2ccnc([C@]3(C)CC(C)(C)SC(N)=N3)c2)co1` [Compound 654], for which the pIC50 under setting [1] is at least 6.00.

With `C[C@@]1(c2cccc(N/C(=N/O)c3ncc(Cl)cc3Cl)c2)CCSC(N)=N1` [Compound 26], under “Recombinant human BACE-1, Table 139, read-out: IC50”, the pIC50 is 5.31.

Take `Cc1cn2cc(C(=O)Nc3ccc(F)c([C@]4(C)CCSC(N)=N4)c3)ncc2n1` [Compound 652]: the pIC50 under setting [1] is at least 6.00.

Regarding `Cc1cc(C(=O)Nc2ccc(F)c([C@]3(C)CCSC(N)=N3)c2)n(C(C)(C)C)n1` [Compound 538], under setting [1], the pIC50 was at least 6.00.

As to `CC1(C)C[C@@](C)(c2cc(NC(=O)c3ncccc3F)ccn2)N=C(N)S1` [Compound 655], under setting [1], the pIC50 was at least 6.00.

`Cc1nc(C(=O)Nc2ccc(F)c([C@@]3(C)N=C(N)SCC3(C)C)c2)co1` [Compound 648]: under setting [1], the pIC50 is at least 6.00.

On to `CCCCc1ccc(C(=O)Nc2ccc(F)c([C@@]3(C)N=C(N)SCC3(F)F)c2)nc1` [Compound 665], for which the pIC50 under setting [1] was at least 6.00.

On to `C[C@@]1(c2ccnc(NC(=O)c3ccc(Cl)cn3)c2)CCSC(N)=N1` [Compound 598], for which the pIC50 under setting [1] was at least 6.00.

With `C[C@@]1(c2cc(NC(=O)c3cnc(-c4ccsc4)cn3)ccc2F)CCSC(N)=N1` [Compound 537], the pIC50 under setting [1] is at least 6.00.

For the compound `Cc1cnc(C(=O)Nc2ccc(F)c([C@@]3(C)N=C(N)SCC34CC4)c2)cn1` [Compound 674], the pIC50 under setting [1] is at least 6.00.

As for `COc1nc(C(=O)Nc2ccc(F)c([C@]3(C)CCSC(N)=N3)c2)co1` [Compound 667], the pIC50 under setting [1] is at least 6.00.

As for `Cc1cnn(-c2cnc(C(=O)Nc3ccc(F)c([C@]4(C)CCSC(N)=N4)c3)cn2)c1` [Compound 577], the pIC50 under setting [1] is at least 6.00.

As to `Cn1nc(Cl)cc1C(=O)Nc1cncc([C@]2(C)CCSC(N)=N2)c1` [Compound 478], the pIC50 under setting [1] is at least 6.00.

In the case of `COc1cnc(C(=O)Nc2cccc([C@]3(C)CCSC(N)=N3)c2)c(N)n1` [Compound 29], the pIC50 under setting [1] was at least 6.00.

For `CC(=O)c1ccc(C(=O)Nc2ccc(F)c([C@]3(C)CCSC(N)=N3)c2)s1` [Compound 530], the negative logarithm of the IC50 (pIC50) under setting [1] is at least 6.00.
